Some test systems named below: HS 578T breast; IGROV1 ovarian; LOX IMVI melanoma; MDA-MB-435; SF-268 CNS; SN12C renal; SNB-19 CNS; T-47D breast; UACC-62 melanoma; SR leukemia.
Common to all, as to test: NCI tumour cell line growth inhibition, 48 h

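Compound exposure: 48 hours, 5 concentrations, 96-well plates. Here, GI50 denotes the concentration required for 50% inhibition of growth. Definition used: TGI = concentration required for complete inhibition of growth.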

In the case of `CC(=O)C(=Cc1ccc(C=C(C(C)=O)C(C)=O)cc1)C(C)=O`, the TGI with HS 578T breast was 22.6 µM; in the test with IGROV1 ovarian it was 4.18 µM; in the test on LOX IMVI melanoma it was 1.91 µM; in the test on MDA-MB-435 it was 5.66 µM; with SF-268 CNS, 3.97 µM; in the test on SN12C renal it was 3.07 µM. Besides, the figures for the TGI in the test with SNB-19 CNS, in the test on T-47D breast and in the test with UACC-62 melanoma were 5.46 µM, 8.49 µM and 4.02 µM, respectively.
Turning to `CCN(CC)CCOc1ccc(CCc2cc(OC)c(OC)c(OC)c2)cc1`, the TGI was above 100 µM in the test on IGROV1 ovarian; 26.9 µM in the test with LOX IMVI melanoma; above 100 µM with SF-268 CNS; above 100 µM in the test on SN12C renal; above 100 µM in the test on SNB-19 CNS; above 100 µM with SR leukemia. For the same molecule, in the test on UACC-62 melanoma, the TGI came to 66.3 µM.
For `C[C@]12CCC(=O)C=C1CC[C@@H]1C2CC[C@]2(C)Nc3c(cnn3-c3ccccc3)CC12` (stereo partly specified), the TGI in the test on IGROV1 ovarian and with UACC-62 melanoma was above 100 µM in each case.
Take `CN1CCN(CCOc2ccc(-c3cnc4c(-c5ccc(C(F)(F)F)cc5)cnn4c3)cc2)CC1`: the GI50 with HS 578T breast is 1.62 µM; in the test with IGROV1 ovarian it was 1.55 µM; in the test on LOX IMVI melanoma, 1.62 µM; with MDA-MB-435, 1.61 µM; with SF-268 CNS, 1.7 µM; in the test on SN12C renal it was 1.66 µM. Moreover, the GI50 with SNB-19 CNS is 1.72 µM; with UACC-62 melanoma, 1.69 µM. Moreover, the TGI came out at 3.41 µM with HS 578T breast; 3.06 µM in the test with IGROV1 ovarian; 3.15 µM in the test with LOX IMVI melanoma; 3.02 µM with MDA-MB-435; 3.44 µM in the test on SF-268 CNS; 3.1 µM in the test with SN12C renal. In addition, the TGI in the test with SNB-19 CNS turned out to be 3.22 µM; in the test with UACC-62 melanoma it was 3.13 µM.
Consider `CC(C)CCCC(C)[C@H]1CCC2[C@@H]3CCC4Nc5nocc5C[C@]4(C)C3CC[C@@]21C` (stereo partly specified), for which the TGI in the test with IGROV1 ovarian came out at 57 µM; in the test on LOX IMVI melanoma, 4.95 µM; with SF-268 CNS, 36.8 µM; in the test on SN12C renal it was 33.8 µM; in the test with SNB-19 CNS, 37.5 µM; with UACC-62 melanoma, 40.7 µM.
As for `O=C1C2C3C=C4c5ccccc5N(c5ccccc5)C4(C2C(=O)N1c1ccc(Cl)cc1)[C@H]1C(=O)N(c2ccc(Cl)cc2)C(=O)[C@@H]31` (stereo partly specified), the TGI in the test with IGROV1 ovarian, with LOX IMVI melanoma, in the test with SN12C renal, with SNB-19 CNS, in the test with SR leukemia and in the test with UACC-62 melanoma was above 100 µM each time.
In the case of `Cc1ccc(SSc2ccc(C)cc2C(=O)O)c(C(=O)O)c1`, the TGI in the test with LOX IMVI melanoma, with SF-268 CNS, with SN12C renal, in the test on SNB-19 CNS, in the test with SR leukemia and in the test on UACC-62 melanoma was above 100 µM in each case.
`Cc1cc(NCCCCCCNc2cc(C)nc3cc(N(C)C)ccc23)c2ccc(N(C)C)cc2n1`: the TGI is above 100 µM with SF-268 CNS; above 100 µM in the test with SN12C renal; 92.7 µM in the test with SNB-19 CNS; above 100 µM with SR leukemia; 21.4 µM with UACC-62 melanoma.
As for `c1csc(-c2cn3nc(-c4c[nH]c5ccccc45)sc3n2)c1`, the GI50 in the test on HS 578T breast was 2.65 µM; in the test with IGROV1 ovarian it was 1.79 µM; in the test with MDA-MB-435 it was 0.225 µM; in the test on SF-268 CNS, 3.84 µM; in the test with SN12C renal, 1.15 µM; with SNB-19 CNS, 2.56 µM. The GI50 with UACC-62 melanoma was 0.738 µM. In addition, the TGI was above 100 µM with HS 578T breast; above 100 µM in the test with IGROV1 ovarian; 0.685 µM in the test on MDA-MB-435; above 100 µM with SF-268 CNS; above 100 µM in the test on SN12C renal; above 100 µM in the test on SNB-19 CNS. Also, the TGI in the test on UACC-62 melanoma amounted to 18.7 µM.
In the case of `C1=CC=C2NCCCCCCCNC3=CC=CC=CC3=NCCCCCCCN=C2C=C1`, the TGI with LOX IMVI melanoma, in the test with SF-268 CNS, with SN12C renal, in the test with SNB-19 CNS and in the test with SR leukemia was above 100 µM throughout.
On to `c1ccc(CN2CCC3(CC2)SSC2(CCN(Cc4ccccc4)CC2)S3)cc1`, for which the TGI with HS 578T breast, in the test on IGROV1 ovarian, in the test with LOX IMVI melanoma, in the test with MDA-MB-435, with SN12C renal and in the test with SR leukemia was above 100 µM each time. In the test on UACC-62 melanoma, this molecule came in with a TGI above 100 µM.
On to `O=C1NC2(CCCCCC2)C2CCCCCCC12O` (stereo unspecified), for which the TGI in the test with IGROV1 ovarian, in the test with LOX IMVI melanoma, in the test with SF-268 CNS, with SN12C renal, with SNB-19 CNS and in the test with SR leukemia was above 100 µM in each case. The molecule further returned a TGI in the test with UACC-62 melanoma above 100 µM.
Consider `COc1ccc(-c2nc(/C=N/Nc3cc(C)nc4ccc(Cl)cc34)c(C)o2)cc1`, for which the GI50 in the test with HS 578T breast is 1.84 µM; in the test with IGROV1 ovarian it was 1.76 µM; in the test on LOX IMVI melanoma it was 1.74 µM; in the test on MDA-MB-435 it was 1.65 µM; in the test with SN12C renal, 1.8 µM; in the test on SNB-19 CNS it was 1.81 µM. The figures for the GI50 in the test on T-47D breast and with UACC-62 melanoma were 1.71 µM and 1.8 µM, respectively. Moreover, the TGI in the test on HS 578T breast came out at 3.79 µM; in the test with IGROV1 ovarian it was 3.36 µM; in the test with LOX IMVI melanoma it was 3.23 µM; in the test on MDA-MB-435 it was 3.07 µM; with SN12C renal, 3.42 µM; in the test on SNB-19 CNS it was 3.46 µM. For the same molecule, the TGI amounted to 3.56 µM in the test on T-47D breast and 3.37 µM with UACC-62 melanoma.
For the molecule `Cc1cc(C(=C2C=CC(=Nc3ccccc3)C=C2)c2ccc(Nc3ccccc3)cc2)ccc1N`, the GI50 is 0.389 µM in the test with IGROV1 ovarian; 0.169 µM in the test with LOX IMVI melanoma; 0.651 µM in the test with SF-268 CNS; 0.31 µM in the test with SN12C renal; 0.397 µM with SNB-19 CNS; 0.527 µM in the test on T-47D breast. Further, the GI50 in the test on UACC-62 melanoma is 0.25 µM. Also, the TGI was 1.34 µM in the test on IGROV1 ovarian; 0.31 µM in the test on LOX IMVI melanoma; 1.83 µM in the test with SF-268 CNS; 1.48 µM with SN12C renal; 1.56 µM with SNB-19 CNS; 1.93 µM with T-47D breast. The molecule also registered a TGI in the test with UACC-62 melanoma of 0.796 µM.
On to `COc1ccc2c(c1)[n+]([O-])c(-c1ccc(OC)c(OC)c1)c(N)[n+]2[O-]`, for which the TGI in the test with IGROV1 ovarian, with LOX IMVI melanoma, with SF-268 CNS, with SN12C renal, with SNB-19 CNS and in the test on UACC-62 melanoma was above 100 µM throughout.
